From ChEMBL document CHEMBL1142250, “Discovery of azetidinone acids as conformationally-constrained dual PPARalpha/gamma agonists” (Bioorg Med Chem Lett, 2008)

How the values were obtained:
[1] = target: Cytochrome P450 2C9 (Homo sapiens, UniProt P11712); assay: Inhibition of CYP2C9; assay type: ADME
[2] = test system: Mus musculus; assay: Decrease in plasma glucose level in db/db mouse at 10 mg/kg/day, po qd after 14 days; assay type: functional; set-up: scale not given: the % may be the effect or the level left
[3] = target: T1, Cytochrome P450 3A4 (Homo sapiens, UniProt P08684); assay: Inhibition of CYP3A4 in presence of 7-benzyloxy-4-trifluoromethyl coumarin substrate; assay type: ADME
[4] = target: T2, Peroxisome proliferator-activated receptor gamma (Homo sapiens, UniProt P37231); assay: Inhibition of PPARgamma
T2 sequence (P37231 whole entry): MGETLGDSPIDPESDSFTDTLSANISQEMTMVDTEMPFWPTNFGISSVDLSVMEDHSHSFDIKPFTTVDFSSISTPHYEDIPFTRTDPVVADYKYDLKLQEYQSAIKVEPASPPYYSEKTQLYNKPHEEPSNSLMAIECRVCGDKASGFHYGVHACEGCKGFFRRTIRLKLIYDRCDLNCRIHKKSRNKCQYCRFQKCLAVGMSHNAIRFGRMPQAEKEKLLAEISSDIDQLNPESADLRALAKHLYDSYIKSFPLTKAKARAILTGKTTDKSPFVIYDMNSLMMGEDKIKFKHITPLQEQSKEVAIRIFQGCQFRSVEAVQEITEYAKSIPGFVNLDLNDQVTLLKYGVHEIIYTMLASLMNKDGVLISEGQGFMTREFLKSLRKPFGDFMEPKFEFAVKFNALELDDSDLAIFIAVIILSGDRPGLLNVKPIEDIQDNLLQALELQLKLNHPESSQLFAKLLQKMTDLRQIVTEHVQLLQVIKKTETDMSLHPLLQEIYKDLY

[5] = target: T3, Peroxisome proliferator-activated receptor alpha (Homo sapiens, UniProt Q07869); assay: Agonist activity at PPARalpha in HEK293 cells by GAL4 transactivation assay; assay type: functional, cell-based
T3 sequence (Q07869 whole entry): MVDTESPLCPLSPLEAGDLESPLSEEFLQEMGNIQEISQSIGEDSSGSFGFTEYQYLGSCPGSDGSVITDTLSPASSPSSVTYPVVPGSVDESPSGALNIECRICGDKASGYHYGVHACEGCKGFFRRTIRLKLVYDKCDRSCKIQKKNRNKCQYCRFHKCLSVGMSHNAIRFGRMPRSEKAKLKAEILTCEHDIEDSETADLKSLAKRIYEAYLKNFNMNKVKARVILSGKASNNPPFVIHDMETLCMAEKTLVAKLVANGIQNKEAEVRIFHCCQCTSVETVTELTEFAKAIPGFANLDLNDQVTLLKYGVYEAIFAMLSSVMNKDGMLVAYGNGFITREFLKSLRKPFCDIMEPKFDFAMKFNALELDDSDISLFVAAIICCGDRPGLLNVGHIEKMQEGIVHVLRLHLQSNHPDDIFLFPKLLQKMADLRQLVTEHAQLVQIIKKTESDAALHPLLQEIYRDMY

[6] = target: T4, Peroxisome proliferator-activated receptor alpha (Homo sapiens) (UniProt Q07869); assay: Agonist activity at PPARalpha in HEK293 cells at 1 uM by GAL4 transactivation assay relative to GW-2331; assay type: functional, cell-based
T4 sequence (whole entry): T3 sequence (Q07869 whole entry)

[7] = Drug concentration in db/db mouse plasma at 10 mg/kg/day, po qd after 14 days; assay type: ADME, organism-based; set-up: route oral
[8] = test system: Liver; assay: Drug concentration in db/db mouse liver at 10 mg/kg/day, po qd after 14 days; assay type: ADME, organism-based; set-up: route oral; conditions: in vivo, 336 h
[9] = test system: Adipose tissue; assay: Drug concentration in db/db mouse adipose at 10 mg/kg/day, po qd after 14 days; assay type: ADME, organism-based; set-up: route oral; conditions: in vivo, 336 h
[10] = target: T1, Cytochrome P450 3A4; assay: Inhibition of CYP3A4 in presence of 7-benzyloxyresorufin substrate; assay type: ADME
[11] = test system: Mus musculus; assay: Decrease in plasma triglyceride level in db/db mouse at 10 mg/kg/day, po qd after 14 days; assay type: functional; set-up: scale not given: the % may be the effect or the level left
[12] = target: T3, Peroxisome proliferator-activated receptor alpha
[13] = target: T2, Peroxisome proliferator-activated receptor gamma
Description: Agonist activity at PPARgamma in HEK293 cells by GAL4 transactivation assay

[14] = test system: Mus musculus; assay: Decrease in plasma triglyceride level in db/db mouse at 10 mg/kg/day, po qd after 3 weeks; assay type: functional; set-up: scale not given: the % may be the effect or the level left
[15] = target: Cytochrome P450 2C19 (Homo sapiens, UniProt P33261); assay: Inhibition of CYP2C19; assay type: ADME
[16] = target: Voltage-gated inwardly rectifying potassium channel KCNH2 (Homo sapiens, UniProt Q12809); assay: Inhibition of human ERG by FLIPR assay
Sequence of Voltage-gated inwardly rectifying potassium channel KCNH2 (Q12809 whole entry): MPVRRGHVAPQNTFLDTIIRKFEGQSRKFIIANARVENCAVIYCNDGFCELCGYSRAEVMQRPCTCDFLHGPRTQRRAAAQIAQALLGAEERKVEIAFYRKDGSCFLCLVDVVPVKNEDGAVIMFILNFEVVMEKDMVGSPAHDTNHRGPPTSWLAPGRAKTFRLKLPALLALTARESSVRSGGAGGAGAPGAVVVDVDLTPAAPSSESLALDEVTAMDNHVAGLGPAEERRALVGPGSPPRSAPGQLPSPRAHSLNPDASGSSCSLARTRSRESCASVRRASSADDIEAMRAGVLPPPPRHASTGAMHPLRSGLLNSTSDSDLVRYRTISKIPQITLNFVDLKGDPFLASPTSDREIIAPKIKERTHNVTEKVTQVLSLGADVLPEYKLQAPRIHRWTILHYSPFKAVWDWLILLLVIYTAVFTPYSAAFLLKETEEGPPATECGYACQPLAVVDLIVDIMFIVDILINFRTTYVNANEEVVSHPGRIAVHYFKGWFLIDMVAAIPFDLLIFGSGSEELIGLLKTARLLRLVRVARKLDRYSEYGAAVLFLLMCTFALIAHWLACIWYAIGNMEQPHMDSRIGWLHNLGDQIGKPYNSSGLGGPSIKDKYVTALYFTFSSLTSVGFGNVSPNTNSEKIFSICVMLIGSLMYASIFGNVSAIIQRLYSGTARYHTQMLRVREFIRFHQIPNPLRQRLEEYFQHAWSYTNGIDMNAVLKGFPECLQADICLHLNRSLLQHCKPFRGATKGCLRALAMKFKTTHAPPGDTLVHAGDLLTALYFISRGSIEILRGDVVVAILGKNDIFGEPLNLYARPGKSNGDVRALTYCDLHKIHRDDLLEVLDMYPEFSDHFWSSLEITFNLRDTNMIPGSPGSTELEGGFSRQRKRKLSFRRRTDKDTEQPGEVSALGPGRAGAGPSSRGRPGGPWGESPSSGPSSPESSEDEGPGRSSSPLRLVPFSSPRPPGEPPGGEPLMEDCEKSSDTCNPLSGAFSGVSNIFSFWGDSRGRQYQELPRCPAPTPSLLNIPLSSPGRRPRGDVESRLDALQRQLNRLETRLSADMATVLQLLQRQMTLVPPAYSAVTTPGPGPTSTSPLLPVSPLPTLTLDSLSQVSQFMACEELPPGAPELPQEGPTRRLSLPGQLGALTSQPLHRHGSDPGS

T1 sequence (P08684 whole entry): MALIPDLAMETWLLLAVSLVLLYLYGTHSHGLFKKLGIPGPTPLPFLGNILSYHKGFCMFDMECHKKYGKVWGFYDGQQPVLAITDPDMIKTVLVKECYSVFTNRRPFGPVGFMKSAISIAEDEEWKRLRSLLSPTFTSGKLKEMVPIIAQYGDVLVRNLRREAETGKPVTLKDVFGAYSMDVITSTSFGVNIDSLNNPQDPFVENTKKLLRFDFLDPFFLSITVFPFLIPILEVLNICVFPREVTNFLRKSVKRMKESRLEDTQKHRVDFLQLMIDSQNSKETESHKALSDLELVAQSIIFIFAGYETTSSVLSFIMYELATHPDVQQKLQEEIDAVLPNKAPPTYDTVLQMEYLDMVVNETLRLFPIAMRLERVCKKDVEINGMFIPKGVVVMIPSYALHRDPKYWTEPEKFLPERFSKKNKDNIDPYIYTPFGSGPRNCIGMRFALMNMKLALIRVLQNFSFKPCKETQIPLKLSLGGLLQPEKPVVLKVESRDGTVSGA
Sequence of Cytochrome P450 2C19 (P33261 whole entry): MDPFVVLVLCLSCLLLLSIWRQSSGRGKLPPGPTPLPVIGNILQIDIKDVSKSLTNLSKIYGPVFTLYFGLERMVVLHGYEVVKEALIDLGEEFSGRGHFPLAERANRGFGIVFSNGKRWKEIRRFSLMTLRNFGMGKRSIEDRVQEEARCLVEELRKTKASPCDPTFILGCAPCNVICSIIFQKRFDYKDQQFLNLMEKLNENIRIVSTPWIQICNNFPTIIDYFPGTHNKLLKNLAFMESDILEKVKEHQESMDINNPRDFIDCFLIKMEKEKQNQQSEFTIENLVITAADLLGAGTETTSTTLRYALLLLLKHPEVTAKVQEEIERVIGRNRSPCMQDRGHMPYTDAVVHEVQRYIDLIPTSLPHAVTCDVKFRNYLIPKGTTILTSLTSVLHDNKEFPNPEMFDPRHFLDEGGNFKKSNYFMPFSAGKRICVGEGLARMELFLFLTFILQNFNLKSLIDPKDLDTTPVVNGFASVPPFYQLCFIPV
Sequence of Cytochrome P450 2C9 (P11712 whole entry): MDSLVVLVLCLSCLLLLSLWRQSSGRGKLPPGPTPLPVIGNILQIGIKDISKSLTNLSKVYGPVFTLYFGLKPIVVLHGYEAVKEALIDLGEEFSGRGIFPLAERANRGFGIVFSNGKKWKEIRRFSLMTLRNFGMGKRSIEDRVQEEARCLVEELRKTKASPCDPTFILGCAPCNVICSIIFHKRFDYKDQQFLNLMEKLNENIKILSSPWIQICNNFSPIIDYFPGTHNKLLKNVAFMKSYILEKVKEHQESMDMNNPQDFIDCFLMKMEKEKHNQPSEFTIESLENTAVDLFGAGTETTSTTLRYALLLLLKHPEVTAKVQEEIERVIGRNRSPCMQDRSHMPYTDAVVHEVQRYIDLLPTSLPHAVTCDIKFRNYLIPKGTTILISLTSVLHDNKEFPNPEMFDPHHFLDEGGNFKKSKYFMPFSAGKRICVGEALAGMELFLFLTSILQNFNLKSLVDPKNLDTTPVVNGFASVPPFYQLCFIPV

SMILES	IC50 [1] [nM]	Activity [2] [%]	IC50 [3] [µM]	IC50 [4] [nM]	EC50 [5] [nM]	Intrinsic activity [6] [%]	concentration at 336 h [7] [nM]	Drug uptake [8] [nmol/g]	Drug uptake [9] [nmol/g]	IC50 [10] [µM]	Activity [11] [%]	IC50 [12] [nM]	EC50 [13] [nM]	Activity [14] [%]	IC50 [15] [µM]	IC50 [16] [µM]
COc1ccc(N2C(=O)[C@@H](Cc3cccc(OCCc4nc(-c5ccccc5)oc4C)c3)[C@H]2C(=O)O)cc1	2200	-43	50	100	70	> 90	2800	10.4	0.29	0.83	0	360	90	–	–	–
Cc1oc(-c2ccccc2)nc1CCOc1cccc(C[C@@H]2C(=O)N(c3ccc(C(C)(C)C)cc3)[C@@H]2C(=O)O)c1	230	-17	17	40	40	–	870	7.4	–	19	-52	80	120	61	–	–
Cc1oc(-c2ccccc2)nc1CCOc1cccc(CC2C(=O)N(c3ccc(F)cc3)C2C(=O)O)c1 (racemic)	–	–	–	180	110	> 90	–	–	–	–	–	2400	30	–	–	–
COc1ccc(OC(=O)N(CC(=O)O)Cc2ccc(OCCc3nc(-c4ccccc4)oc3C)cc2)cc1 [MURAGLITAZAR]	–	-54	–	–	–	–	103000	25	3	–	-33	–	–	–	–	–
Cc1oc(-c2cccc(Cl)c2)nc1CCOc1cccc(C[C@@H]2C(=O)N(c3ccc(C(C)(C)C)cc3)[C@@H]2C(=O)O)c1	670	–	–	250	60	> 90	–	–	–	20	–	860	100	–	5.3	–
Cc1oc(-c2ccccc2)nc1CCOc1cccc(CC2C(=O)N(c3ccc(Cl)cc3)C2C(=O)O)c1 (racemic)	–	–	–	360	230	> 90	–	–	–	–	–	1400	130	–	–	–
Cc1oc(-c2ccc(Cl)cc2)nc1CCOc1cccc(C[C@@H]2C(=O)N(c3ccc(C(C)(C)C)cc3)[C@@H]2C(=O)O)c1	410	–	4.7	670	5	> 90	–	–	–	–	–	480	60	–	2.8	–
Cc1oc(-c2ccccc2)nc1CCOc1cccc(C[C@H]2C(=O)N(c3ccc(C(C)(C)C)cc3)[C@H]2C(=O)O)c1	670	–	20	800	5400	–	–	–	–	–	–	> 15000	410	–	–	–
CCCCCCCN(CCc1ccc(O[C@@](C)(CC)C(=O)O)cc1)C(=O)Nc1ccc(F)cc1F	–	–	–	600	45	> 90	–	–	–	–	–	740	243	–	–	–
COc1ccc(N2C(=O)[C@H](Cc3ccc(OCCc4nc(-c5ccccc5)oc4C)cc3)[C@@H]2C(=O)O)cc1	–	–	–	3400	> 7500	–	–	–	–	–	–	> 15000	–	–	–	–
COc1ccc(N2C(=O)C(Cc3cccc(OCCc4nc(-c5ccccc5)oc4C)c3)C2C(=O)O)cc1 (racemic)	–	–	–	160	140	> 90	–	–	–	–	–	690	180	–	–	–
COc1ccc(-c2nc(CCOc3cccc(C[C@@H]4C(=O)N(c5ccc(C(C)(C)C)cc5)[C@@H]4C(=O)O)c3)c(C)o2)cc1	–	–	–	220	8	> 90	–	–	–	12	–	460	40	–	–	–
COc1ccc(N2C(=O)[C@H](Cc3cccc(OCCc4nc(-c5ccccc5)oc4C)c3)[C@@H]2C(=O)O)cc1	–	–	–	1100	> 7500	–	–	–	–	–	–	> 15000	840	–	–	–
COc1cccc(-c2nc(CCOc3cccc(C[C@@H]4C(=O)N(c5ccc(C(C)(C)C)cc5)[C@@H]4C(=O)O)c3)c(C)o2)c1	650	–	–	110	40	> 90	–	–	–	19	–	520	40	–	8.3	–
Cc1oc(-c2ccccc2)nc1CCOc1ccc(C[C@H]2C(=O)N(c3ccc(C(C)(C)C)cc3)[C@H]2C(=O)O)cc1	3000	–	> 40	4240	970	–	–	–	–	> 40	–	> 15000	500	–	–	–
COc1ccc(N2C(=O)[C@@H](Cc3ccc(OCCc4nc(-c5ccccc5)oc4C)cc3)[C@H]2C(=O)O)cc1	14000	–	33	40	150	> 90	–	–	–	26	–	730	20	–	–	54
COc1ccc(N2C(=O)C(Cc3cccc(OCCc4nc(-c5ccccc5)oc4C)c3)C2C(=O)O)cn1 (racemic)	–	–	–	230	90	> 90	–	–	–	–	–	1300	70	–	–	–
Cc1oc(-c2ccccc2)nc1CCOc1ccc(C[C@@H]2C(=O)N(c3ccc(C(C)(C)C)cc3)[C@@H]2C(=O)O)cc1	2300	–	> 40	110	10	> 90	–	–	–	28	–	790	4	–	–	–
